IC50 data for 19 compounds are collected here from US10800741B2 (ANCUREALL PHARMACEUTICAL (SHANGHAI) CO., LTD., priority 2017, dated 2020).

Common to all, as to assay type: cell-based, Human
For one assay, the system named is H1581 (FGFR1 amp). Nature of the assay: In vitro growth inhibition of H1581 tumor cells (MTT/CCK8). The note with it: Homo sapiens, NCI-H1581; in vitro growth inhibition (or induction of apoptosis), cells cultured 3 to 5 days, MTT (CCK8); read-out: IC50 H1581 (FGFR1 amp). An excerpt: (§1) Tumor cell lines are an effective model for studying in vitro tumor growth inhibition. In the present invention, a representative tumor cell line was selected to determine the cell growth inhibition activity of the present compound. All cell lines used were from ATCC, DSMZ, and cell banks of the Chinese Academy of Sciences. Cell culture conditions and methods were in accordance with the requirements of each cell line. Cells were subcultured in vitro for no more than 3 generations each time, and as required, single-clone purification and identification of cell lines could be carried out.
(§2) The cell culture media used were RPMI1640 (Gibco), DMEM (Gibco), MEM (Gibco), L15 (Gibco), IMDM (Gibco), McCOY'S5A, and William's (Gibco). 5-20% fetal bovine serum (Gibco), 1% double antibiotic, 2 mM glutamine, or 1 mM sodium pyruvate were added. The names, species, major gene characteristics, culture media and cell sources of the cell lines used are shown in table 1, wherein “amp” refers to gene amplification. “+++” refers to gene overexpression. The main genetic characteristics of cells were obtained from the COSMIC Cell Lines Project and related research papers, respectively.
(§3) Adherent cells were digested with 0.25% trypsin-EDTA (Gibco). Suspension culture cells were collected by centrifugation (1700 rpm, 3 minutes). The supernatant was discarded and the cells were counted. According to each cell growth cycle, different concentrations of cells were prepared (5˜10×10^4 cells per ml), and inoculated to 96-well plates (Corning), with 100 μl per well, and incubated overnight at 37° C., 5% CO2. The next day, the test compound was added to the cultured cells (2 wells in parallel). The final concentration of the solvent was less than 1/1,000. The cells were further cultured for 3 to 5 days and assayed by MTT.
(§4) The compound was stored at a concentration of 10 mM at −20° C. and diluted to 2- or 10-fold series prior to use. BGJ398 and AC220 were synthesized according to the methods of WO2006420A1 and US2007232604A1, respectively.
(§5) The adherent cells were taken out from the cell culture medium, and immediately added to a freshly prepared complete medium containing 10% CCK8 (5% FBS), 100 ul per hole. The suspended cells were directly added to a CCK8 reagent until reaching a final concentration of 10% and cultured for 1 to 4 hours.
(§6) T=optical density of drug-treated cell wells−optical density of blank control wells; T0=optical density of cell wells before drug treatment−optical density of blank control wells; C=optical density of solvent control wells−optical density of blank control wells. […] The experiments were repeated 1 to 3 times and a statistical analysis of data was conducted.

The test system of a further assay is KATO III (FGFR2 amp). Nature of the assay: In vitro growth inhibition of KATO III tumor cells (MTT/CCK8). The settings on record: Homo sapiens, KATO III; in vitro growth inhibition (or induction of apoptosis), cells cultured 3 to 5 days, MTT (CCK8); read-out: IC50 KATO III (FGFR2 amp).
Text: as §1, §2, §3, §4, §5, §6

A further assay relates to MOLM-13 (FLT3-ITD). Nature of the assay: In vitro growth inhibition of MOLM-13 tumor cells (MTT/CCK8). The note with it: Homo sapiens, MOLM-13; in vitro growth inhibition (or induction of apoptosis), cells cultured 3 to 5 days, MTT (CCK8); read-out: IC50 MOLM-13 (FLT3-ITD).
Text: as §1, §2, §3, §4, §5, §6

The IC50 is the point on the concentration scale where inhibition reaches its midpoint. Consider `COCCOc1cc2nccc(Oc3ccc(NC(=O)Nc4cc(C(C)(C)C)n[nH]4)cc3)c2cc1NC(C)=O` [Compound 116, N-[4-{4-[3-(5-tert-butyl-2H-pyrazol-3-yl)-ureido]-phenoxy}-7-(2-methoxy-ethoxy)-quinolin-6-yl]-acetamide], for which the IC50 with H1581 (FGFR1 amp) stood at 9.01 nM; in the assay on KATO III (FGFR2 amp), 1.97 nM; in the assay on MOLM-13 (FLT3-ITD) it was 0.095 nM.

`COCCOc1cc2nccc(Oc3ccc(NC(=O)Nc4cc(C(C)(C)C)nn4C)cc3)c2cc1NC(C)=O` [Compound 117, N-[4-{4-[3-(5-tert-butyl-2-methyl-2H-pyrazol-3-yl)-ureido]-phenoxy}-7-(2-methoxy-ethoxy)-quinolin-6-yl]-acetamide]: the IC50 was found to be 9.72 nM in the assay on H1581 (FGFR1 amp), 0.17 nM with KATO III (FGFR2 amp) and 0.25 nM in the assay with MOLM-13 (FLT3-ITD).

`COCCOc1cc2nccc(Oc3ccc(NC(=O)Nc4cc(C(C)(C)C)nn4C4CC4)cc3)c2cc1NC(C)=O` [Compound 118]: the IC50 with H1581 (FGFR1 amp) worked out at 19.3 nM; in the assay with KATO III (FGFR2 amp) it was 0.38 nM; in the assay with MOLM-13 (FLT3-ITD), 0.11 nM.

Take `COCCOc1cc2nccc(Oc3ccc(NC(=O)Nc4cc(C(C)(C)C)nn4CCN(C)C)cc3)c2cc1NC(C)=O` [Compound 119, N-[4-(4-{3-[5-tert-butyl-2-(2-dimethylamino-ethyl)-2H-pyrazol-3-yl]-ureido}-phenoxy)-7-(2-methoxyethoxy)-quinolin-6-yl]-acetamide]: the IC50 with H1581 (FGFR1 amp) was 78.9 nM; with KATO III (FGFR2 amp) it was 6.87 nM; with MOLM-13 (FLT3-ITD), less than 0.05 nM.

Regarding `COCCOc1cc2nccc(Oc3ccc(NC(=O)Nc4cc(C(C)(C)C)nn4C4CCNCC4)cc3)c2cc1NC(C)=O` [Compound 120, N-[4-{4-[3-(5-tert-butyl-2-piperidin-4-yl-2H-pyrazol-3-yl)-ureido]-phenoxy}-7-(2-methoxy-ethoxy)-quinolin-6-yl]-acetamide], the figures for the IC50 in the assay with H1581 (FGFR1 amp), in the assay on KATO III (FGFR2 amp) and with MOLM-13 (FLT3-ITD) were 78.6 nM, 13.5 nM and 0.55 nM, respectively.

For the compound `COCCOc1cc2nccc(Oc3ccc(NC(=O)Nc4cc(C(C)(C)C)nn4C4CCN(C)CC4)cc3)c2cc1NC(C)=O` [Compound 121], the results for the concentration for half-maximal inhibition (IC50) in the assay on H1581 (FGFR1 amp), with KATO III (FGFR2 amp) and in the assay on MOLM-13 (FLT3-ITD) were 19.5 nM, 0.5 nM and 0.61 nM, respectively.

Take `COCCOc1cc2nccc(Oc3ccc(NC(=O)Nc4cc(C(C)(C)C)nn4CCN4CCOCC4)cc3)c2cc1NC(C)=O` [Compound 122]: the concentration for half-maximal inhibition (IC50) in the assay on H1581 (FGFR1 amp) turned out to be 69.4 nM; in the assay on KATO III (FGFR2 amp), 0.27 nM; with MOLM-13 (FLT3-ITD) it was 0.6 nM.

Take `COCCOc1cc2nccc(Oc3ccc(NC(=O)Nc4cc(C(C)(C)C)nn4CCN4CCOCC4)c(Cl)c3)c2cc1NC(C)=O` [Compound 123, N-[4-(4-{3-[5-tert-butyl-2-(2-morpholin-4-yl-ethyl)-2H-pyrazol-3-yl]-ureido}-3-chloro-phenoxy)-7-(2-methoxy-ethoxy)-quinolin-6-yl]-acetamide]: the IC50 was 9.1 nM in the assay on H1581 (FGFR1 amp), less than 0.05 nM with KATO III (FGFR2 amp) and 1.22 nM in the assay with MOLM-13 (FLT3-ITD).

As to `COCCOc1cc2nccc(Oc3ccc(NC(=O)Nc4cc(C(C)(C)C)nn4C)c(Cl)c3)c2cc1NC(C)=O` [Compound 124, N-[4-{4-[3-(5-tert-butyl-2-methyl-2H-pyrazol-3-yl)-ureido]-3-chloro-phenoxy}-7-(2-methoxy-ethoxy)-quinolin-6-yl]-acetamide], the IC50 was 4.6 nM with H1581 (FGFR1 amp), 0.31 nM with KATO III (FGFR2 amp) and 1.01 nM in the assay with MOLM-13 (FLT3-ITD).

For `COCCOc1cc2nccc(Oc3ccc(NC(=O)Nc4cc(C(C)(C)C)nn4C4CCN(C)CC4)c(Cl)c3)c2cc1NC(C)=O` [Compound 126, N-[4-(4-{3-[5-tert-butyl-2-(1-methyl-piperidin-4-yl)-2H-pyrazol-3-yl]-ureido}-3-chloro-phenoxy)-7-(2-methoxy-ethoxy)-quinolin-6-yl]-acetamide], the IC50 was 1.41 nM in the assay on H1581 (FGFR1 amp), 0.41 nM in the assay with KATO III (FGFR2 amp) and 7.62 nM in the assay with MOLM-13 (FLT3-ITD).

Take `COCCOc1cc2nccc(Oc3ccc(NC(=O)Nc4cc(C(C)(C)C)nn4CCN(C)C)c(Cl)c3)c2cc1NC(C)=O` [Compound 127, N-[4-{4-[3-(5-tert-butyl-2-dimethylamino-ethyl-2H-pyrazol-3-yl)-ureido]-3-chloro-phenoxy}-7-(2-methoxy-ethoxy)-quinolin-6-yl]-acetamide]: the IC50 is 1.26 nM with H1581 (FGFR1 amp), 0.27 nM in the assay with KATO III (FGFR2 amp) and 2.56 nM in the assay on MOLM-13 (FLT3-ITD).

For `COCCOc1cc2nccc(Oc3ccc(NC(=O)Nc4cc(C(C)(C)C)n[nH]4)c(F)c3)c2cc1NC(C)=O` [Compound 128, N-[4-{4-[3-(5-tert-butyl-2H-pyrazol-3-yl)-ureido]-3-fluoro-phenoxy}-7-(2-methoxy-ethoxy)-quinolin-6-yl]-acetamide], the figures for the IC50 with H1581 (FGFR1 amp), in the assay with KATO III (FGFR2 amp) and with MOLM-13 (FLT3-ITD) were 2.01 nM, 0.1 nM and 3.91 nM, respectively.

As for `COCCCOc1cc2nccc(Oc3ccc(NC(=O)Nc4cc(C(C)(C)C)n[nH]4)c(Cl)c3)c2cc1NC(C)=O` [Compound 129, N-[4-{4-[3-(5-tert-butyl-2H-pyrazol-3-yl)-ureido]-3-chloro-phenoxy}-7-(3-methoxy-propoxy)-quinolin-6-yl]-acetamide], the IC50 was 4.78 nM in the assay on H1581 (FGFR1 amp), 0.34 nM with KATO III (FGFR2 amp) and 4.88 nM in the assay on MOLM-13 (FLT3-ITD).

For `CC(=O)Nc1cc2c(Oc3ccc(NC(=O)Nc4cc(C(C)(C)C)n[nH]4)c(Cl)c3)ccnc2cc1OCCCN1CCN(C)CC1` [Compound 130, N-{4-{4-[3-(5-tert-butyl-2H-pyrazol-3-yl)-ureido]-3-chloro-phenoxy}-7-[3-(4-methy-piperazin-1-yl)-propoxy]-quinolin-6-yl}-acetamide], the IC50 in the assay with H1581 (FGFR1 amp) was 1.12 nM; in the assay on KATO III (FGFR2 amp), 0.54 nM; in the assay with MOLM-13 (FLT3-ITD) it was 4.96 nM.

Regarding `CC(=O)Nc1cc2c(Oc3ccc(NC(=O)Nc4cc(C(C)(C)C)n[nH]4)c(Cl)c3)ccnc2cc1OCCO` [Compound 131], the IC50 stood at 19.5 nM in the assay on H1581 (FGFR1 amp), 11.6 nM in the assay with KATO III (FGFR2 amp) and 14.7 nM in the assay with MOLM-13 (FLT3-ITD).

As to `CC(=O)Nc1cc2c(Oc3ccc(NC(=O)Nc4cc(C(C)(C)C)n[nH]4)c(Cl)c3)ccnc2cc1OCCN1CCOCC1` [Compound 132, N-[4-{4-[3-(5-tert-butyl-2H-pyrazol-3-yl)-ureido]-3-chloro-phenoxy}-7-(2-morpholin-4-yl-ethoxy)-quinolin-6-yl]-acetamide], the half-maximal inhibitory concentration (IC50) came out at 3.91 nM in the assay on H1581 (FGFR1 amp), 1.34 nM with KATO III (FGFR2 amp) and 0.98 nM in the assay with MOLM-13 (FLT3-ITD).

`COCCOc1cc2nccc(Oc3ccc(NC(=O)Nc4cc(C(C)(C)C)n[nH]4)c(C)c3)c2cc1NC(C)=O` [Compound 133, N-[4-{4-[3-(5-tert-butyl-2H-pyrazol-3-yl)-ureido]-3-methyl-phenoxy}-7-(2-methoxy-ethoxy)-quinolin-6-yl]-acetamide]: the IC50 is 8.04 nM in the assay with H1581 (FGFR1 amp), 1.56 nM with KATO III (FGFR2 amp) and 1.13 nM in the assay on MOLM-13 (FLT3-ITD).

With `COCCOc1cc2nccc(Oc3ccc(NC(=O)Nc4cc(C(C)(C)C)nn4C4CC4)cc3F)c2cc1NC(C)=O` [Compound 134], the IC50 with H1581 (FGFR1 amp) was 12.4 nM; in the assay on KATO III (FGFR2 amp), 0.3 nM; in the assay with MOLM-13 (FLT3-ITD), less than 0.05 nM.

Take `COCCOc1cc2nccc(Oc3ccc(NC(=O)Nc4cc(C(C)(C)C)nn4C)cc3Cl)c2cc1NC(C)=O` [Compound 135, N-[4-{4-[3-(5-tert-butyl-2-methyl-2H-pyrazol-3-yl)-ureido]-2-chloro-phenoxy}-7-(2-methoxy-ethoxy)-quinolin-6-yl]-acetamide]: the IC50 was 19.5 nM in the assay with H1581 (FGFR1 amp), 0.22 nM with KATO III (FGFR2 amp) and 0.11 nM in the assay on MOLM-13 (FLT3-ITD).
